Measurements published in patent publication US20260092061A1, “COMPOUNDS FOR TARGETED PROTEIN DEGRADATION” (Amphista Therapeutics Limited, priority 2022, published 2026).

Molecular target: T1, BRD9 (Homo sapiens, UniProt Q9H8M2)
T1 sequence (Q9H8M2 1-597): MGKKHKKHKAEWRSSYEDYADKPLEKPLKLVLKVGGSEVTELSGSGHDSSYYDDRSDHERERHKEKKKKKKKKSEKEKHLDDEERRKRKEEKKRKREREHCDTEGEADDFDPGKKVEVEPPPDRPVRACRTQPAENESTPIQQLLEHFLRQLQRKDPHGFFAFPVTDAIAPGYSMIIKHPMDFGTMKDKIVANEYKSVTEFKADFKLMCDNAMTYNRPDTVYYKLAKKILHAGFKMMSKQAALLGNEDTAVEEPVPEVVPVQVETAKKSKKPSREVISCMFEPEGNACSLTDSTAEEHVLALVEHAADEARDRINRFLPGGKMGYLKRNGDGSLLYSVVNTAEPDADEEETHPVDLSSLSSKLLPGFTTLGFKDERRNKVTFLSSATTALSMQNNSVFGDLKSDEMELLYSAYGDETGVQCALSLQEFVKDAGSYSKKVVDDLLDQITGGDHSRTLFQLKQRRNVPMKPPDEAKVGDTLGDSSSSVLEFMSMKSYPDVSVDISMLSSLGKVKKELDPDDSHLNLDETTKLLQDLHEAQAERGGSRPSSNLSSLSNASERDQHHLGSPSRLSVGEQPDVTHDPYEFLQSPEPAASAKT
Assay: Degradation of BRD9 (IF), immunofluorescence in MV4-11 cells, 24 hours (Assay Protocol 2)
Assay type: cell-based
Design: A suspension of MV4-11 cells (ATCC CRL-9591) was prepared; host or cells: MV4-11
Conditions: BRD9 degradation; for DC50: Assay protocol 2, read-out: DC50; for Dmax: MV4-11, Assay protocol 2, read-out: Dmax
In short: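 MV4-11 cells treated with compound 24 h at 37° C., then fixed, permeabilised and immunostained for BRD9 (anti-BRD9 E4Q3F, Alexa 647 secondary, Hoechst counterstain). High-content imaging quantified nuclear BRD9 signal; % BRD9 remaining normalised to DMSO and 100 nM CFT-8634 controls.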

| SMILES | DC50 [nM] | Dmax [%] |
| --- | --- | --- |
| COc1cc(-c2cn(C)c(=O)c(C)c2C)cc(OC)c1CN1CCN(Cc2cccc3c2CCN(C(=O)/C(C#N)=C/C(C)(C)CF)C3C)C2(CC2)C1 (single isomer, unassigned) [Compound B195, (E/Z)-2-(5-((7-(2,6-dimethoxy-4-(1,4,5-trimethyl-6-oxo-1,6-dihydropyridin-3-yl)benzyl)-4,7-diazaspiro[2.5]octan-4-yl)methyl)-1-methyl-1,2,3,4-tetrahydroisoquinoline-2-carbonyl)-5-fluoro-4,4-dimethylpent-2-enenitrile] | < 1.25 | > 75 |
| COc1cc(-c2cn(C)c(=O)c(C)c2C)cc(OC)c1CN1CCN(Cc2cccc3c2CCN(C(=O)/C(C#N)=C/C(C)(C)CF)[C@@H]3C)C2(CC2)C1 (single isomer, unassigned) [Compound B196, (E/Z)-2-(5-((7-(2,6-dimethoxy-4-(1,4,5-trimethyl-6-oxo-1,6-dihydropyridin-3-yl)benzyl)-4,7-diazaspiro[2.5]octan-4-yl)methyl)-1-methyl-1,2,3,4-tetrahydroisoquinoline-2-carbonyl)-5-fluoro-4,4-dimethylpent-2-enenitrile] | 1.25 to 10 | 70 to 75 |
| COc1cc(-c2cn(C)c(=O)c(C)c2C)cc(OC)c1CN1CCN(Cc2cccc3c2CCN(C(=O)/C(C#N)=C/C(C)(C)C)[C@H]3C)[C@@H](C)C1 (single isomer, unassigned) [Compound B197] | 25 to 1000 | 40 to 70 |
| COc1cc(-c2cn(C)c(=O)c(C)c2C)cc(OC)c1CN1CCN(Cc2cccc3c2CCN(C(=O)/C(C#N)=C/C(C)(C)C)[C@@H]3C)[C@@H](C)C1 (single isomer, unassigned) [Compound B198] | 1.25 to 10 | > 75 |
| COc1cc(-c2cn(C)c(=O)c(C)c2C)cc(OC)c1CN1CCN(Cc2ccc3c(c2)[C@H](C)N(C(=O)/C(C#N)=C/C(C)(C)CF)CC3)C2(CC2)C1 (single isomer, unassigned) [Compound B201, (E/Z)-2-(7-((7-(2,6-dimethoxy-4-(1,4,5-trimethyl-6-oxo-1,6dihydropyridin-3-yl)benzyl)-4,7-diazaspiro[2.5]octan-4-yl)methyl)-1-methyl-1,2,3,4-tetrahydroisoquinoline-2-carbonyl)-5-fluoro-4,4-dimethylpent-2-enenitrile] | 25 to 1000 | 40 to 70 |
| COc1cc(-c2cn(C)c(=O)c(C)c2C)cc(OC)c1CN1CCN(Cc2ccc3c(c2)[C@@H](C)N(C(=O)/C(C#N)=C/C(C)(C)CF)CC3)C2(CC2)C1 (single isomer, unassigned) [Compound B202, (E/Z)-2-(7-((7-(2,6-dimethoxy-4-(1,4,5-trimethyl-6-oxo-1,6-dihydropyridin-3-yl)benzyl)-4,7-diazaspiro[2.5]octan-4-yl)methyl)-1-methyl-1,2,3,4-tetrahydroisoquinoline-2-carbonyl)-5-fluoro-4,4-dimethylpent-2-enenitrile] | < 1.25 | > 75 |
| COc1cc(-c2cn(C)c(=O)c(C)c2C)cc(OC)c1CN1CCN(Cc2ccc3c(c2)C(C)N(C(=O)/C(C#N)=C/C(C)(C)CCl)CC3)C2(CC2)C1 (single isomer, unassigned) [Compound B203, (E/Z)-5-chloro-2-(7-((7-(2,6-dimethoxy-4-(1,4,5-trimethyl-6-oxo-1,6-dihydropyridin-3-yl)benzyl)-4,7-diazaspiro[2.5]octan-4-yl)methyl)-1-methyl-1,2,3,4-tetrahydroisoquinoline-2-carbonyl)-4,4-dimethylpent-2-enenitrile] | 1.25 to 10 | > 75 |
| COc1cc(-c2cn(C)c(=O)c(C)c2C)cc(OC)c1CN1CCN(Cc2ccc3c(c2)[C@H](C)N(C(=O)/C(C#N)=C/C(C)(C)C)CC3)[C@H](C)C1 (single isomer, unassigned) [Compound C3] | 25 to 1000 | 40 to 70 |
| COc1cc(-c2cn(C)c(=O)c(C)c2C)cc(OC)c1CN1CCN(Cc2cccc3c2CCN(C(=O)/C(C#N)=C/C(C)(C)C)[C@H]3C)CC12CC2 (single isomer, unassigned) [Compound C4, (E/Z)-2-(5-((4-(2,6-dimethoxy-4-(1,4,5-trimethyl-6-oxo-1,6-dihydropyridin-3-yl)benzyl)-4,7-diazaspiro[2.5]octan-7-yl)methyl)-1-methyl-1,2,3,4-tetrahydroisoquinoline-2-carbonyl)-4,4-dimethylpent-2-enenitrile] | 1.25 to 10 | > 75 |
| COc1cc(-c2cn(C)c(=O)c(C)c2C)cc(F)c1CN1CCN(Cc2ccc3c(c2)[C@@H](C)N(C(=O)/C(C#N)=C/C(C)(C)C)CC3)C2(CC2)C1 (single isomer, unassigned) [Compound C5, (E/Z)-2-(7-((7-(2-fluoro-6-mehtoxy-4-(1,4,5-trimethyl-6-oxo-1,6-dihydropyridin-3-yl)benzyl)-4,7-diazaspiro[2.5]octan-4-yl)methyl)-1-methyl-1,2,3,4-tetrahydroisoquinoline-2-carbonyl)-4,4-dimethylpent-2-enenitrile] | 10 to 25 | > 75 |
| COc1cc(-c2cn(C)c(=O)c3[nH]ncc23)cc(OC)c1CN1CCN(Cc2ccc3c(c2)[C@@H](C)N(C(=O)/C(C#N)=C/C(C)(C)C)CC3)C2(CC2)C1 (single isomer, unassigned) [Compound C6, (E/Z)-2-(7-((7-(2,6-dimethoxy-4-(6-methyl-7-oxo-6,7-dihydro-1H-pyrazolo[3,4-c]pyridin-4-yl)benzyl)-4,7-diazaspiro[2.5]octan-4-yl)methyl)-1-methyl-1,2,3,4-tetrahydroisoquinoline-2-carbonyl)-4,4-dimethylpent-2-enenitrile] | < 1.25 | > 75 |
| COc1cc(-c2cn(C)c(=O)c(C)c2C)cc(OC)c1CN1CCCN(Cc2cccc3c2CCN(C(=O)/C(C#N)=C/C(C)(C)CF)[C@@H]3C)CC1 (single isomer, unassigned) [Compound C19] | 1.25 to 10 | > 75 |
| COc1cc(-c2cn(C)c(=O)c(C)c2C)cc(OC)c1CN1CCN(Cc2cccc3c2CCN(C(=O)/C(C#N)=C/C(C)(C)F)[C@@H]3C)C2(CC2)C1 (single isomer, unassigned) [Compound C20, (E/Z)-2-(5-((7-(2,6-dimethoxy-4-(1,4,5-trimethyl-6-oxo-1,6-dihydropyridin-3-yl)benzyl)-4,7-diazaspiro[2.5]octan-4-yl)methyl)-1-methyl-1,2,3,4-tetrahydroisoquinoline-2-carbonyl)-4-fluoro-4-methylpent-2-enenitrile] | < 1.25 | > 75 |
| COc1cc(-c2cn(C)c(=O)c(C)c2C)cc(OC)c1CN1CCN(Cc2cccc3c2CCN(C(=O)/C(C#N)=C\C(C)(C)CF)C3C(C)C)[C@@H](C)C1 (single isomer, unassigned) [Compound C26] | 10 to 25 | > 75 |
| COc1cc(-c2cn(C)c(=O)c(C)c2C)ccc1OC1CCN(Cc2cccc3c2CCN(C(=O)/C(C#N)=C/C(C)(C)C)[C@H]3C)CC1 (single isomer, unassigned) [Compound C31, (E/Z)-2-(5-((4-(2-methoxy-4-(1,4,5-trimethyl-6-oxo-1,6-dihydropyridin-3-yl)phenoxy)piperidin-1-yl)methyl)-1-methyl-1,2,3,4-tetrahydroisoquinoline-2-carbonyl)-4,4-dimethylpent-2-enenitrile] | 1.25 to 10 | > 75 |
| COc1cc(-c2cn(C)c(=O)c(C)c2C)cc(OC)c1CN1CCN(Cc2ccc3c(c2)[C@H](C)N(C(=O)/C(C#N)=C/C(C)(C)CF)CC3)CC12CC2 (single isomer, unassigned) [Compound C33] | 1.25 to 10 | > 75 |
| COc1cc(-c2cn(C)c(=O)c(C)c2C)cc(OC)c1CN1CCN(Cc2ccc3c(c2)[C@@H](C)N(C(=O)/C(C#N)=C/C(C)(C)CF)CC3)CC12CC2 (single isomer, unassigned) [Compound C34] | 25 to 1000 | 40 to 70 |
| COc1cc(-c2cn(C)c(=O)c(C)c2C)cc(OC)c1CN1CCN(Cc2ccc3c(c2)[C@@H](C)N(C(=O)/C(C#N)=C/C(C)(C)C)CC3)C2(CC2)C1 (single isomer, unassigned) [Compound C35, (E/Z)-2-(7-((7-(2,6-dimethoxy-4-(1,4,5-trimethyl-6-oxo-1,6-dihydropyridin-3-yl)benzyl)-4,7-diazaspiro[2.5]octan-4-yl)methyl)-1-methyl-1,2,3,4-tetrahydroisoquinoline-2-carbonyl)-4,4-dimethylpent-2-enenitrile] | < 1.25 | > 75 |
| COc1cc(-c2cn(C)c(=O)c(C)c2C)cc(OC)c1CN1CCN(Cc2ccc3c(c2)[C@H](C)N(C(=O)/C(C#N)=C/C(C)(C)C)CC3)C2(CC2)C1 (single isomer, unassigned) [Compound C36, (E/Z)-2-(7-((7-(2,6-dimethoxy-4-(1,4,5-trimethyl-6-oxo-1,6-dihydropyridin-3-yl)benzyl)-4,7-diazaspiro[2.5]octan-4-yl)methyl)-1-methyl-1,2,3,4-tetrahydroisoquinoline-2-carbonyl)-4,4-dimethylpent-2-enenitrile] | 10 to 25 | 40 to 70 |
